{"source": "paper PMC7442133", "about": "“Reduced treatment frequencies with bumped kinase inhibitor 1369 are effective against porcine cystoisosporosis” (International Journal for Parasitology: Drugs and Drug …, 2020)", "key": {"C. suis sporozoites": {"system": "C. suis sporozoites", "test": "Invasion inhibition: sporozoites pre-incubated with BKI 1369, free merozoites counted 9 dpi in IPEC-1 cultures", "type": "cell-based, Cystoisospora suis", "procedure": "The laboratory strain C. suis Wien I ([Joachim and Mundt, 2011]), was maintained by passage in suckling piglets every 3–6 months and infectivity in vivo was assessed regularly at the Institute of Parasitology, University of Veterinary Medicine, Vienna. Oocysts were purified from collected feces, brought to sporulation and stored as described elsewhere ([Worliczek et al., 2013]). For in vitro studies, sporozoites were excysted ([Worliczek et al., 2013]), enumerated with a hemocytometer and used immediately for infection of semi-permanent intestinal porcine epithelial cells (IPEC-1). For in vivo studies, sporulated oocysts were washed with tap water and enumerated prior to infection of piglets.\nIPEC-1 cells were maintained in culture medium at 37 °C and 5% CO2 (DHEM/HAM12 supplemented with 5% fetal calf serum and penicillin/streptomycin; Gibco via Thermo Fisher, Vienna, Austria). Cells (4 × 10^4) were used to seed 24-well plates and grown to confluence. […] Cell viability in the presence of DMSO and BKIs was determined by colorimetric cell proliferation (WST-1) assays ([Shrestha et al., 2019]). […]\nIn order to test whether BKI 1369 affects initial host cell invasion by C. suis, freshly excysted sporozoites were pre-incubated with BKI 1369 or DMSO for 6 h at 37 °C. […] Readout for both growth (merozoite replication) and invasion-inhibition experiments was microscopical evaluation by counting free merozoites 9 days post-infection (dpi) from culture supernatants. Supernatants were collected and free merozoites were counted in pooled samples at 9 dpi from quadruplicate wells in C-Chip disposable hemocytometers (NanoEnTek/Roth Lactan, Graz, Austria). […]\nStatistical calculations for in vivo trials were performed with RStudio version 1.1.453 (RStudio Team, 2018), descriptive statistics with Microsoft Excel 2010 (Microsoft Inc., Vienna, Austria) and GraphPad Prism version 5.04 for Windows (GraphPad Software, San Diego, California USA). […] In vitro assays were evaluated by t-tests with significance reported at P < 0.05. […]"}, "[1]": {"test": "Body weight development of experimentally infected suckling piglets", "type": "in vivo", "details": "for BW SD 8 / BW SD 15 / BW SD 22 / BW SD 29 / BW SD 1: SD in brackets; for BW SD 1: before treatment"}, "[2]": {"details": "Exp I group A: 1 × 20 mg/kg BW, SD 3 (0 dpi)"}, "[3]": {"details": "Exp I group B: 1 × 20 mg/kg BW, SD 5 (2 dpi)"}, "[4]": {"details": "Exp I group C: 2 × 20 mg/kg BW, SD 5 & 7 (2 & 4 dpi)"}, "[5]": {"details": "Exp II group W: 1 × 20 mg/kg BW, SD 5 (2 dpi)"}, "[6]": {"details": "Exp II group X: 1 × 10 mg/kg BW, SD 5 (2 dpi)"}, "[7]": {"details": "Exp II group Y: 1 × 5 mg/kg BW, SD 5 (2 dpi)"}}, "note": "Several values for one entry are separate records, joined by “and”; a condition that tells them apart may be missing. Equal values may be shown once.", "data": [{"smiles": "CCOc1ccc2cc(-c3nn(CC4CCN(C)CC4)c4ncnc(N)c34)ccc2n1", "note": "[BKI 1369]", "values": [{"measurement": "Pre-incubation concentrations that significantly reduced total merozoite counts at 9 dpi", "setting": "C. suis sporozoites; sporozoites pre-incubated 6 h at 37 °C, washed, IPEC-1, P < 0.05 vs DMSO-only and no-treatment", "result": "≥ 200", "unit": "nM"}, {"measurement": "Pre-incubation concentrations that completely failed to inhibit host cell invasion", "setting": "C. suis sporozoites; sporozoites pre-incubated 6 h at 37 °C, washed, IPEC-1, vs DMSO-only and no-treatment", "result": "≤ 100", "unit": "nM"}, {"measurement": "Inhibition of infection in vitro by pre-incubation of sporozoites", "setting": "C. suis sporozoites; unless treatment was prolonged post-infection", "result": "completely failed to inhibit the infection"}, {"measurement": "BW SD 8", "setting": "[1]; [2]", "result": "2604 [283.8] g"}, {"measurement": "BW SD 15", "setting": "[1]; [2]", "result": "4198.4 [573.9] g"}, {"measurement": "BW SD 22", "setting": "[1]; [2]", "result": "6082 [750.1] g"}, {"measurement": "BW SD 29", "setting": "[1]; [2]", "result": "7956 [750.22] g"}, {"measurement": "BW SD 1", "setting": "[1]; [2]", "result": "1276 [227.4] g"}, {"measurement": "BWG SD 8 to 15 (mean body weight gain, acute phase of infection)", "setting": "[1]; Exp I group A: 1 × 20 mg/kg BW, SD 3 (0 dpi), control D 1042 g, 20 mg/kg", "result": "1594 g and 1594.4 g"}, {"measurement": "BW SD 8", "setting": "[1]; [3]", "result": "2530.9 [362.3] g"}, {"measurement": "BW SD 15", "setting": "[1]; [3]", "result": "4292.7 [724.9] g"}, {"measurement": "BW SD 22", "setting": "[1]; [3]", "result": "5892.7 [1225.6] g"}, {"measurement": "BW SD 29", "setting": "[1]; [3]", "result": "7721.8 [1710.2] g"}, {"measurement": "BW SD 1", "setting": "[1]; [3]", "result": "1214.5 [206.9] g"}, {"measurement": "BWG SD 8 to 15 (mean body weight gain, acute phase of infection)", "setting": "[1]; Exp I group B: 1 × 20 mg/kg BW, SD 5 (2 dpi), control D 1042 g, 20 mg/kg", "result": "1762 g and 1761.8 g"}, {"measurement": "BW SD 8", "setting": "[1]; [4]", "result": "2494.5 [328.9] g"}, {"measurement": "BW SD 15", "setting": "[1]; [4]", "result": "4267.3 [491.6] g"}, {"measurement": "BW SD 22", "setting": "[1]; [4]", "result": "5950.9 [619.6] g"}, {"measurement": "BW SD 29", "setting": "[1]; [4]", "result": "7867.3 [851.9] g"}, {"measurement": "BW SD 1", "setting": "[1]; [4]", "result": "1163.6 [205.5] g"}, {"measurement": "BWG SD 8 to 15 (mean body weight gain, acute phase of infection)", "setting": "[1]; Exp I group C: 2 × 20 mg/kg BW, SD 5 & 7 (2 & 4 dpi), control D 1042 g, 20 mg/kg", "result": "1773 g and 1772.7 g"}, {"measurement": "BW SD 8", "setting": "[1]; [5]", "result": "3148.0 [610.4] g"}, {"measurement": "BW SD 15", "setting": "[1]; [5]", "result": "5140.0 [830.8] g"}, {"measurement": "BW SD 22", "setting": "[1]; [5]", "result": "6952.0 [1204.0] g"}, {"measurement": "BW SD 29", "setting": "[1]; [5]", "result": "9242.0 [1250.4] g"}, {"measurement": "BW SD 1", "setting": "[1]; [5]", "result": "1606.0 [347.4] g"}, {"measurement": "BWG SD 8 to 15 (mean body weight gain, acute phase of infection)", "setting": "[1]; Exp II group W: 1 × 20 mg/kg BW, SD 5 (2 dpi), control Z 389 g, 20 mg/kg", "result": "1992 g and 1992.0 g"}, {"measurement": "BW SD 8", "setting": "[1]; [6]", "result": "1968.0 [632.7] g"}, {"measurement": "BW SD 15", "setting": "[1]; [6]", "result": "4606.0 [745.5] g"}, {"measurement": "BW SD 22", "setting": "[1]; [6]", "result": "6502.0 [1068.4] g"}, {"measurement": "BW SD 29", "setting": "[1]; [6]", "result": "8752.0 [2465.6] g"}, {"measurement": "BW SD 1", "setting": "[1]; [6]", "result": "1472.0 [353.0] g"}, {"measurement": "BWG SD 8 to 15 (mean body weight gain, acute phase of infection)", "setting": "[1]; Exp II group X: 1 × 10 mg/kg BW, SD 5 (2 dpi), control Z 389 g, 10 mg/kg", "result": "1638 g and 1638.0 g"}, {"measurement": "BW SD 8", "setting": "[1]; [7]", "result": "2771.1 [654.5] g"}, {"measurement": "BW SD 15", "setting": "[1]; [7]", "result": "3891.1 [990.8] g"}, {"measurement": "BW SD 22", "setting": "[1]; [7]", "result": "5782.2 [1340.1] g"}, {"measurement": "BW SD 29", "setting": "[1]; [7]", "result": "8055.6 [1626.8] g"}, {"measurement": "BW SD 1", "setting": "[1]; [7]", "result": "1444.4 [391.1] g"}, {"measurement": "BWG SD 8 to 15 (mean body weight gain, acute phase of infection)", "setting": "[1]; Exp II group Y: 1 × 5 mg/kg BW, SD 5 (2 dpi), control Z 389 g, 5 mg/kg", "result": "1120 g and 1120.0 g"}, {"measurement": "Body weight gain compared to control piglets (in words)", "setting": "[1]; irrespective of time points and frequencies of treatment", "result": "significant increase in body weight gain"}]}]}
